Reference: article PMC5790279, “Identification of novel leishmanicidal molecules by virtual and biochemical screenings targeting Leishmania eukaryotic translation initiation factor 4A” (PLoS Neglected Tropical Diseases, 2018)
Like-named read-outs stand apart in the source and are kept apart here.

Legend:
[1] = system: intracellular L. donovani amastigotes; set-up: method as in PMID 16949702; conditions: at 1.94 μM; cited from earlier work
[2] = target: T1, LieIF (Leishmania infantum, UniProt A4HRK0); experiment: Malachite green RNA-dependent ATPase assay of LieIF; type: biochemical; conditions: for effect on the ATPase activity of LieIF in screen: screened at 500 μM
T1 construct: His tag; made in house; host or cells: Escherichia coli Rosetta (Novagen)
T1 sequence (A4HRK0 1-403): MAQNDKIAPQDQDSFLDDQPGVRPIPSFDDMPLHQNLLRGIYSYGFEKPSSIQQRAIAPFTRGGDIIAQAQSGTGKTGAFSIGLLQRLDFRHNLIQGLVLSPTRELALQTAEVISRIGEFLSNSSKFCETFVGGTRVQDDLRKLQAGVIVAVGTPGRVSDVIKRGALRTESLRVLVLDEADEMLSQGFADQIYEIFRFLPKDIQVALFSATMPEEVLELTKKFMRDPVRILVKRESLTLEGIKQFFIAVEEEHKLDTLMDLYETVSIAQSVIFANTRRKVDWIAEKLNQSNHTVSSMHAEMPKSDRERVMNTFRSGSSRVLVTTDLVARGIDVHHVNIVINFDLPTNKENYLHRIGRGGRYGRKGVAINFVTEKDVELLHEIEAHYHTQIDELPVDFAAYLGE
Protocol: (§1) The Rosetta Escherichia coli strain (Novagen) was used for the expression of His-tagged recombinant LieIF and mouse eIF4AI (eIF4AIMus) proteins using already described constructs. Protein expression was performed as previously described, except that cultures were induced with 0.5 mM IPTG. Cells were collected by centrifugation and stored at -20°C until needed. Pellets were resuspended in 10 ml of buffer A (Tris-HCl, pH 7.5, 300 mM NaCl) supplemented with 10 mM imidazole and 0.02% NP40 (lysis buffer). Lysozyme (10 μg/ml, Sigma-Aldrich, St. Louis, MO, USA) and 1x of complete protease inhibitor EDTA-free cocktail (Roche, Indianapolis, USA) were added. The mixtures were kept on ice for 30 min. Then, cells were ruptured by sonication four times for 20 seconds with a Cell Disruptor W375 (Heat System-Ultrasonic, Plainview, N.Y., USA) using a microprobe at a setting of 5 and a duty cycle of 60%. The material was centrifuged for 30 min at 15,000 rpm in a JA-20 rotor (Beckman Coulter, Villepinte, France) at 4°C, and the supernatant was loaded onto a 1 ml nickel-nitrilotriacetic acid (Ni-NTA) agarose column (Ni-NTA, Qiagen, Hilden, Germany) equilibrated with the lysis buffer. The column was washed with 20 ml buffer A supplemented with 25 mM imidazole and 0.02% NP40 (wash buffer 1), and then with 20 ml buffer A supplemented with 25 mM imidazole (wash buffer 2). Proteins were eluted with buffer A supplemented with 100 mM imidazole (elution buffer). The purity of the proteins was checked on 12% SDS-PAGE gels that were stained with Coomassie blue. Purified proteins were stored at -80°C after making 50% in glycerol (w/w). The proteins concentrations were determined using the Bio-Rad Protein Dye Assay (Biorad, Munich, Germany).
(§2) We used a colorimetric assay based on Malachite green as previously described. We optimized the previously published conditions for the LieIF and eIF4AIMus ATPase assays to fit microtiter plates and the screening conditions by varying the quantities of proteins, ATP and magnesium acetate, and by testing different sources and concentrations of RNA. Each reaction was done in 50 μl. The final reaction buffers contained 50 mM potassium acetate, 20 mM MES, pH 6, either 5 mM or 1 mM magnesium acetate for LieIF or eIF4AIMus respectively, 2 mM dithiothreitol (DTT), 0.1 mg/ml bovine serum albumin (BSA) and 0.34 mg/ml whole yeast RNA (Type XI, Sigma). Reactions were incubated at 37°C for various times up to 45 min, and were stopped by adding 5 μl of 0.5 M ethylenediaminetetraacetic acid (EDTA) at pH 8. In experiments testing the compounds, samples dissolved in DMSO were added to the reaction in different concentrations. The final concentration of DMSO in the reaction was 10% (v/v). The reaction rates were determined by a linear regression fit of the initial, linear phase of the curves. Reaction rates were determined in three independent experiments for each compound concentration. Data were analyzed with Kaleidagraph (Synergy).
The Z’-factor is a statistical parameter used to measure the quality of a screening assay. For the biochemical screening, reactions were done with and without proteins as positive and negative controls, respectively. All assay conditions were identical to those described above. Positive controls were designed to replicate a positive hit in an inhibitor screen. Negative controls were designed as no enzymatic reactions. The phosphate released was measured after 45 min. Statistical analysis was performed using the equation: Z^′=1-3*(σ^++σ^-)/(μ^+-μ^-) (2) where μ^− and σ^− correspond to the mean absorbance and standard deviations respectively, for each reaction without enzyme (no activity), and μ^+ and σ^+ are the mean absorbance and standard deviations, respectively, for reaction wells in the presence of enzyme. The Z’-factor values above 0.5 were considered significant and corresponding plates were retained. […]

[3] = MTT cytotoxicity assay on THP-1-derived macrophages; conditions: human, THP-1-derived macrophages (PMA-differentiated)
Protocol: The human myelomonocytic cell line, THP-1 was ordered from the American Type Culture Collection (ATCC, TIB-202). [86] Cells were maintained in RPMI 1640/Glutamax-I media (Gibco BRL, Germany) supplemented with 10% heat-inactivated fetal calf serum (Gibco, Germany) plus penicillin G (100 U/ml) and streptomycin (100 g/ml). THP-1 cells were differentiated to macrophages after their treatment with 20 ng/ml phorbol 12-myristate 7-acetate (PMA) (Sigma, St. Louis, MO, USA) for 48 h at 37°C, 5% CO2. [87] […] [87]
For the cytotoxicity assay, we used the THP-1-derived macrophages (50,000 cells/well) seeded in 96-well plates and treated with serial concentrations of compounds (final concentrations of 1.5-100 μM) for 24h. After that, an MTT assay was performed as previously described to determine cell viability. [88] Thus, 20 μl of MTT solution (5 mg/ml) were added to each well and incubated at 25°C for 4h. Then, 150 μl of DMSO were added to each well to dissolve the blue formazan and the optical density (OD) was measured at 560 nm with a microplate reader ([sequence], Labsystems).
The cell viability of THP-1-derived macrophages was expressed as the percentage of the viable cell number in treated cells relative to the THP-1-derived macrophages treated with 1% DMSO. The 50% cytotoxic concentrations (CC50) were calculated for all the tested compounds by interpolation. All experiments were repeated three times in triplicate for each compound concentration.

[4] = system: L. infantum intramacrophage amastigotes; experiment: Macrophage infection assay, intramacrophage amastigotes; type: cell-based, Leishmania infantum; conditions: infected THP-1-derived macrophages, 24h exposure
Protocol: [86] […] [87] […] [87]
After careful washing of PMA-treated THP-1 cells (50,000 cells/well) with warm serum-free RPMI-1640 (∼ 37°C) media, 50 μl of the diluted L. infantum promastigote culture were added at the optimized MOI (10:1). Control wells of THP-1 cells without the parasites, and THP-1 cells with the parasites, were set up in each 8-well Labtek slides. The slides were incubated at 37°C, 5% CO2 overnight. After incubation, infected wells were washed at least 3 times with serum-free RPMI-1640 media to ensure complete removal of non-engulfed promastigotes, and then they were incubated in presence of different concentrations of compounds for 24 h. Control groups were incubated in supplemented RPMI medium containing 1% DMSO. Cells were then fixed and stained with RAL 555 rapid stain kit (May-Grünwald Type) (Cell Path, Newtown, UK) following the manufacturer’s instructions. The number of infected cells per 100 macrophages and the total number of parasites per 100 cells observed were determined by light microscopy under immersion oil (1000X) by counting at least 100 cells per well. Three independent experiments were conducted for each compound concentration. These values allowed us to determine the mean values and standard deviations of the percentage of infected cells and the mean amastigote number per cell. To account for the overall parasite load, an Infection Index was calculated by multiplying these two values; then, to assess the infection inhibition by the compounds, the percentage of Inhibition Parasite Index (IPI) was determined as: IPI = 100 − ((Infection Index in treated cells/Infection Index in untreated cells) * 100).
The amastigote IC50 values were calculated for all tested compounds. Selectivity index was also determined for each compound as follows: SI = CC50/IC50. Data were analyzed with Kaleidagraph (Synergy). The statistical significance of differences was determined with the Student’s t-test (* p < 0.05; ** p < 0.01).

[5] = system: L. infantum promastigotes; experiment: MTT viability assay on promastigotes; type: cell-based; conditions: Leishmania infantum, stationary phase promastigotes, 24h exposure
Protocol: The effect of the selected chemical compounds on the viability of L. infantum promastigotes was evaluated by a colorimetric MTT (3-(4,5-dimethylthiazol-2yl)-2,5-diphenyl tetrazolium bromide) assay that consisted in a reduction of tetrazolium salt to a soluble crystal (blue formazan) by the succinate dehydrogenase activity of mitochondria in living cells, which can be quantified by spectrophotometry as previously described. […] Briefly, 90 μl of promastigotes harvested from the stationary growth phase were added to a 96-well culture plate (5 × 10^5 cells/well) with 10 μl of various concentrations of the selected compounds (to obtain a final concentration of 1.5-100 μM) and incubated at 25°C for 24h. After incubation, 20 μl of MTT solution (5 mg/ml) were added to each well and incubated at 25°C for 4h. Then, 150 μl of DMSO was added to each well to dissolve the blue formazan and the optical density (OD) was measured at 560 nm with a microplate reader ([sequence], Labsystems). Mock treated-promastigotes in complete medium (with no drug, 1% DMSO) were used as positive control. Stock solutions of the compounds prepared for these experiments contained 100% DMSO. All subsequent dilutions were freshly made with RPMI 1640 (final concentration of 10% DMSO). Thus, all compounds, as well as the positive control, were tested at a final concentration of 1% DMSO per well.
The promastigotes viability was expressed as the percentage of the viable promastigotes in treated conditions relative to the 1% DMSO mock-treated promastigotes. The IC50 values were calculated for all the tested compounds by interpolation. […] All experiments were repeated three times in triplicate for each compound concentration. Absorbance measured was used to reflect promastigote or cell viability using the following formula: %cellviability=[(ODtest-ODblank)/(ODcontrol-ODblank)]*100 (4)

[6] = target: T2, eIF4AIMus (Mus musculus, UniProt P60843); experiment: Malachite green RNA-dependent ATPase assay of eIF4AIMus; type: biochemical; conditions: for effect on the ATPase activity of eIF4AIMus in screen: screened at 500 μM
T2 construct: His tag; made in house; host or cells: Escherichia coli Rosetta (Novagen)
Protocol: as §1, §2
Biochemical screening experiments were performed in 96-well plates. Column 1 and 12 contained full signal controls (no inhibitor) and background controls (no enzyme): wells A1 to D1 and E12 to H12 corresponded to negative controls; E1 to H1 and A12 to D12 corresponded to positive controls. Compounds were added in columns 2 to 11, at a 500 μM final concentration. ATPase test reactions were done in three independent experiments. The phosphate released was measured after 45 min. Results were reported as weighted means. Z’-scores were calculated for each plate from the full signal and background controls. Plates with Z’-values below 0.5 were discarded. The inhibition of ATPase activity was calculated as follow: [85] Percentageofinhibition=(μ^+-OD630nmforcompoundX)/(μ^+-μ^-)*100 (3) Selected hits were further tested with kinetic assays. Results were reported as ATPase reaction velocities. […]

[7] = Leishmania infantum, Macrophage, 24 h
[8] = 1 μM protein, 1 mM ATP, saturating RNA, read-out: IC50 of eIF4AIMus ATPase activity

T2 sequence (P60843 whole entry): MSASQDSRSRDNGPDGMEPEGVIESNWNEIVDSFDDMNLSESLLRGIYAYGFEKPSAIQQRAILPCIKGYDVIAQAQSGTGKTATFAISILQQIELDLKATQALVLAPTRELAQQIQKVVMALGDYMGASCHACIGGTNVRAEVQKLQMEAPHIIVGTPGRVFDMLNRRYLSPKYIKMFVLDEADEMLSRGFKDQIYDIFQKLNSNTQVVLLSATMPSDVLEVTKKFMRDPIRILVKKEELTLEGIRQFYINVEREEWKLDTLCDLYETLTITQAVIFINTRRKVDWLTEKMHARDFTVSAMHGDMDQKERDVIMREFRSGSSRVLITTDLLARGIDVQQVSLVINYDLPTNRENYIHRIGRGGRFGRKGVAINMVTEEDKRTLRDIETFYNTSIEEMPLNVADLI

Compound | reduction of the number of intracellular L. donovani amastigotes [1] [%] | IC50 [2] [mM] | inhibition at 500 µM ([2]; 500 μM compound, phosphate released after 45 min, 96-well screen, read-out: percentage of inhibition of LieIF ATPase activity) [%] | CC50 at 24 h [3] [µM] | IC50 [4, 7] [µM] | IC50 [5] [µM] | IC50 [6, 8] [mM] | effect on the ATPase activity of LieIF in screen [2] | IC50 [4] [µM] | effect on the ATPase activity of eIF4AIMus in screen [6] | IC50 ([2]; read-out: IC50 of LieIF ATPase activity, 1 μM protein, value printed in mM in text) [mM] | IC50 [6] [mM] | IC50 ([6]; read-out: IC50 of eIF4AIMus ATPase activity, 1 μM protein, value printed in mM in text) [mM]
7-α/β-aminocholesterol | 59 | – | – | – | – | – | – | – | – | – | – | – | –
CC(C)CCCC(C)C1CCC2C3CC(N)C4CC(O)CCC4(C)C3CCC12C (mixture of isomers) [Compound 208, 6-α/β-aminocholestanol] | – | 0.15 ± 0.015 | 90 | 43.4 ± 0.1 | 1.4 ± 0.1 | 4.1 ± 2.6 | 0.115 ± 0.025 | – | – | – | – | – | –
CC(C)CCCC(C)C1CCC2C3CC(N)C4CC(O)CCC4(C)C3CCC12C (stereo not drawn) [Compound 20, 6-α-aminocholestanol] | – | 0.16 ± 0.025 | – | 35.2 ± 1.3 | < 1 | 3.6 ± 0.1 | 0.185 ± 0.025 | demonstrated inhibition | 0.9 | demonstrated inhibition | – | – | –
CC(C)CCCC(C)C1CCC2C3CC(=O)C4CC(O)CCC4(C)C3CCC12C (stereo not drawn) [Compound 48, 6-ketocholestanol] | – | > 1 | – | 81.4 ± 2.4 | 4.2 ± 0.1 | 39.1 ± 0.8 | – | demonstrated inhibition | – | demonstrated inhibition | ≤ 1 | > 1 | ≤ 1
